Laboratory results as given in patent US11992499B2, “Quinoline derivatives for use in the treatment of inflammation diseases” (ABIVAX, priority 2018, dated 2024).

How the values were obtained:
[1] = tested on: Sugen hypoxia model; test: Rat Sugen hypoxia model of pulmonary arterial hypertension: mean pulmonary pressure; type: in vivo; conditions: SuHx, 50 mg/kg BID gavage Day 22 to Day 56
Protocol: Animals from Groups 2 to 5 (see Table 10) receive a single subcutaneous injection of sugen (20 mg/kg in 2 mL/kg volume) solution (10 mg/mL) on Day 0 and returned to their cages. Animals from Group 1 receive one subcutaneous injection of DMSO at 2 mL/kg (vehicle for sugen) on Day 0 and returned to their respective cages.
Groups 2-5 are placed in cages for which the controlled air is adjusted to receive a FiO2 equivalent to 0.10 (10%) using a mixture of nitrogen and ambient air controlled by the ventilated cage system. They are kept under these hypoxic conditions for 21 days. While in hypoxia, cages are cleaned and changed once a week, exposing the animals to ambient oxygen levels for less than 10 minutes. They are exposed to ambient oxygen levels from Day 22 to Day 56. Group 1 animals remain in cages exposed to ambient oxygen (normoxic) levels for 56 days. The animals are observed on a daily basis for any changes in their behaviour and general health status.
Treatment with the compound A, sildenafil or vehicle is administered as of Day 22 (Groups 2-5) as scheduled and described in Table 10. The Groups 2-4 receives a single dose per day. The reference group 5 receives sildenafil twice a day. Food and water are given ad libitum. Daily observation of the behaviour and general health status of the animals is done. Weekly body weight is taken.
Surgical Instrumentation and Measurement of Hemodynamic and Functional Parameters in Efficacy Study Animals • 1. On the selected day of surgery, rats are anaesthetized with a mixture of 2 to 2.5% isoflurane USP (Abbot Laboratories, Montreal, Canada) in oxygen, and placed on a heating pad to maintain body temperature. • 2. Rats are tracheotomized and immediately ventilated by means of a positive-pressure rodent respirator set at ≈10 ml/kg body weight at a frequency of 65-70 strokes/min. • 3. Lead II ECG contact electrodes is placed on the rat to continuously monitor the ECG during the surgical procedure. • 4. A cannula connected to a pressure transducer is inserted into the left femoral artery to measure the arterial blood pressure. • 5. A cannula connected to a pressure transducer is inserted into the right atria through the right jugular vein to measure the right atria pressure. • 6. The heart is exposed through a sternotomy and a 20GA 1.16 in Insyte is introduced into the right ventricle and rapidly hooked up to a saline filled PE-50 catheter connected to a transducer. • 7. Following a few seconds of right ventricular pressure recording, the Insyte is further advanced into the pulmonary artery to allow PAP recording for an additional 60 seconds. • 8. Hemodynamic parameters are recorded continuously for the duration of the procedure or until loss of PAP signal. • 9. Following hemodynamic monitoring, chest cavity is further opened to expose the lung. The muscle over the trachea is dissected away to remove the lungs and heart. Harvested tissue is rinsed with PBS to remove any excess of blood before to be weighed. • 10. For the histology and casting of the lungs, the process is as follows; 1) eight (8) rats per group is reserved to assess the histology of the left lung and is therefore be treated as described in point 12 of this section 8.2; 2) Two (2) rats per group serve to enable quantitative characterization of the three-dimensional vascular structure of the left lung and therefore is treated as described in section 8.3 for casting of the left lung. • 11. For histology, the left lobe is inflated using a 10 mL syringe filled with fixative (10% NBF) with attached blunt tip needle (23 g). Needle tip is inserted into the trachea, held in place with tied suture while another syringe is tied to the pulmonary artery. The lung is inflated gently at physiological pressure (20-25 mmHg) until all lobes are fully, uniformly, and consistently expanded (not allowing fixative to ooze through lung surface). This provides optimal vascular and airway expansion without causing excessive tissue disruption. […]

[2] = tested on: monocrotaline model of pulmonary arterial hypertension; test: Rat monocrotaline model of pulmonary arterial hypertension: mean pulmonary pressure; type: in vivo; conditions: female rat, MCT, 50 mg/kg BID gavage Day 7 to Day 28, n = 11
Protocol: • 1. The experimental trace to be analyzed is opened in Clampfit. • 2. Right atria pressure is recorded for 1 minute • 3. PAP recorded continuously for at least 1 minute or until loss of signal, is used to extract the mean, diastolic, and systolic pulmonary pressure. • 4. The systemic arterial pressure (SAP) recorded continuously is used to extract the mean, diastolic and systolic arterial pressure. • 5. At the end of the hemodynamic parameters recording, the right and left ventricle including the septum and the lung lobes is excised to determine wet weights. • 6. Each parameter is compiled for each group and presented in bar graphs with appropriate statistical analysis.
The appropriate amount of monocrotaline is weighed and ⅓ of the correct volume of 1.0N HCl is added and mixed to ensure monocrotaline solubilisation. The solution is then neutralized with ⅓ of the correct volume of 1.0 N NaOH. The pH of the solution is checked with a pH indicator paper/strip or an electronic pH meter and adjusted to neutral as necessary; the final volume is completed with water for injection to obtain a solution of 20 mg/mL. The monocrotaline solution is injected subcutaneously, over the shoulders, into the loose skin over the neck, to each rat at 3 mL/kg of body weight (dose is 60 mg/kg).
Compound A was administered as a suspension in the vehicle. To reach the required concentrations, compound A was grounded to a fine powder, using a mortar and pestle, and then mixed with 20% (final volume) of vehicle A1 until a suspension was achieved. 80% of vehicle A2 was then added to the suspension under magnetic stirring.
The appropriate amount of Sildenafil is weighed and appropriate volume of distillated water is added to obtain suspension at 5 mg/mL. The suspension is mixed with a stir bar for 30-60 minutes until a homogenous suspension is achieved. Care is taken to maintain a uniform suspension (stirring continuously) whilst doses are being drawn up into gavage syringes. One gavage syringe is filled at a time and administered before filling the next syringe. The solutions are stored refrigerated at 2 to 8° C. and protected from light. The expiration date is set at 7 days after preparation.
Animals from Groups 2 to 5 (see Table 13) receive a single subcutaneous injection of monocrotaline (60 mg/kg) solution on Day 0 and returned to their cages. Animals from Group 1 receive one subcutaneous injection vehicle for MCT on Day 0 and returned to their respective cages.
Treatment with the compound A, sildenafil or vehicle is administered as of Day 7 (Groups 2-5) as scheduled and described in Table 13. The Groups 2-4 receive a single dose per day. The reference group 5 receives sildenafil twice a day. Food and water are given ad libitum. Daily observation of the behaviour and general health status of the animals is done. Weekly body weight is taken.
Surgical Instrumentation and Measurement of Hemodynamic and Functional Parameters in Efficacy Study Animals • 1. On the selected day of surgery, rats are anaesthetized with a mixture of 2 to 2.5% isoflurane USP (Abbot Laboratories, Montreal, Canada) in oxygen, and placed on a heating pad to maintain body temperature. • 2. Rats are tracheotomized and immediately ventilated by means of a positive-pressure rodent respirator set at ≈10 ml/kg bodyweight at a frequency of 65-70 strokes/min. • 3. Lead II ECG contact electrodes is placed on the rat to continuously monitor the ECG during the surgical procedure. • 4. A cannula connected to a pressure transducer is inserted into the left femoral artery to measure the arterial blood pressure. • 5. A cannula connected to a pressure transducer is inserted into the right atria through the right jugular vein to measure the right atria pressure. • 6. The heart is exposed through a sternotomy and a 20GA 1.16 in Insyte is introduced into the right ventricle and rapidly hooked up to a saline filled PE-50 catheter connected to a transducer. • 7. […]

SMILES: CCCc1nn(C)c2c(=O)[nH]c(-c3cc(S(=O)(=O)N4CCN(C)CC4)ccc3OCC)nc12 [Sildenafil, reference compound]
- Mean Pulmonary Pressure ([1]; female rats): 22.5 mmHg
- Mean Pulmonary Pressure ([1]; male rats): 30.1 mmHg
- Mean Pulmonary Pressure [2]: 18.9 mmHg
